{"source": "patent US12416052B2", "about": "“Capturing, concentrating, and detecting microbes in a sample using magnetic ionic liquids and recombinase polymerase amplification” (priority 2019, dated 2025)", "key": {"Density of MIL": {"test": "Density of MIL", "assay_type": "physicochemical"}, "K. aerogenes ATCC 29940": {"tested_on": "K. aerogenes ATCC 29940", "test": "MIL-based whole-cell extraction", "set-up": "species or system Klebsiella aerogenes", "settings": "EF determined using Tryptic Soy Agar", "procedure": "(§1) A universal schematic for MIL-based cell extraction is depicted in FIG. 7B. A 1 mL volume of diluted cell suspension was added to a flat-bottomed 4-mL screw cap glass vial. Fifteen microliters of either the Ni(II) or Dy(III) MIL was added and dispersed into microdroplets by vortex agitation for 30 s. The aqueous phase was decanted following dispersive extraction, and the MIL was subjected to a brief wash step using 1 mL of nuclease-free water (Integrated DNA Technologies, Coralville, IA, USA) to ensure adequate removal of loosely or incidentally bound cells. […]\n(§2) Following back-extraction, aliquots of the cell-enriched back-extraction medium were serially diluted in 0.1% peptone water and a 10 μL aliquot of each dilution was applied to a separate lane on square plates containing an appropriate agar medium. […] Colonies were counted and colony forming units (CFU) were determined. The enrichment factor (EF) for MIL-based extraction was calculated using Equation 1, where CMIL represents the concentration of bacteria in suspension following extraction using the MIL and CS is the initial concentration of bacteria in the sample."}, "C. sakazakii 01088P": {"tested_on": "C. sakazakii 01088P", "test": "MIL-based whole-cell extraction", "set-up": "species or system Cronobacter sakazakii", "settings": "EF determined using Tryptic Soy Agar", "procedure": "as §1, §2"}, "E. coli O157:H7": {"tested_on": "E. coli O157:H7", "assay_type": "cell-based, Escherichia coli", "settings": "no significant differences (p-value=0.4491)", "procedure": "(§3) The following statistical analysis was performed in SAS 9.4. Four master suspensions of bacteria were prepared for four Salmonella enterica serovars: subsp. typhimurium, subsp. arizonae, subsp. diarizonae and subsp. houtenae. Two master suspensions were made for the remaining three Salmonella serovars or species: S. enterica subsp. indica, subsp. salamae and S. bongori. For E. coli O157:H7, two master suspensions of bacteria were prepared for each of the eight strains studied. For all bacteria tested, two replicate extractions from the same master suspension were performed, using the 10-3 dilution. Following MIL-based capture, back-extraction solutions were plated to non-selective agar (TSA) and selective agar (BSA) for Salmonella and SMAC for E. coli. To identify whether significant differences existed for the capture of Salmonella and E. coli O157:H7, we applied a linear mixed model for the response variable (enrichment factor) with log transformation in order to reduce skewness. […]\n(§4) In order to explore the broader utility of our approach, evaluation of additional cell types is needed. […] We later determined that VRBGA was a suitable common medium for this purpose and used this in our statistical analysis. […] Enrichment factors were calculated for Salmonella on both non-selective (TSA) and selective agars (BSA) and for E. coli O157:H7 on non-selective agar (TSA). […]"}, "[1]": {"tested_on": "Salmonella enterica subsp. enterica ser. Typhimurium ATCC 14028", "assay_type": "cell-based", "set-up": "key to Relative Affinity for MIL: +++++: higher losses during wash step are due to lower cellular affinity for the MIL; ++++: higher losses during wash step are due to lower cellular affinity for the MIL; +++: higher losses during wash step are due to lower cellular affinity for the MIL; ++: higher losses during wash step are due to lower cellular affinity for the MIL; +: higher losses during wash step are due to lower cellular affinity for the MIL", "procedure": "A universal schematic for MIL-based cell extraction is depicted in FIG. 7B. A 1 mL volume of diluted cell suspension was added to a flat-bottomed 4-mL screw cap glass vial. Fifteen microliters of either the Ni(II) or Dy(III) MIL was added and dispersed into microdroplets by vortex agitation for 30 s. The aqueous phase was decanted following dispersive extraction, and the MIL was subjected to a brief wash step using 1 mL of nuclease-free water (Integrated DNA Technologies, Coralville, IA, USA) to ensure adequate removal of loosely or incidentally bound cells. After washing, release of viable cells from the MIL extraction phase was carried out using a “back-extraction” step accomplished through addition of 1 mL of an ionically-rich nutritive medium comprised of 20 g L^−1 tryptone and 10 g L^−1 NaCl, followed by a 120 s vortex step. After back-extraction, aliquots of the cell-enriched back-extraction medium were enumerated using the track dilution method using 100×100 mm square, gridded TSA, BSA, CA or VRBGA plates.\nFollowing back-extraction, aliquots of the cell-enriched back-extraction medium were serially diluted in 0.1% peptone water and a 10 μL aliquot of each dilution was applied to a separate lane on square plates containing an appropriate agar medium. The plates were then tilted at an approximately 80° angle for 15 min to allow the droplets to travel toward the opposite end of the plate. The plates were incubated for 24 h at 37° C. (TSA, VRBGA), for 48 h at 37° C. (BSA) or for 24 h at 37° C. (CA). Colonies were counted and colony forming units (CFU) were determined. The enrichment factor (EF) for MIL-based extraction was calculated using Equation 1, where CMIL represents the concentration of bacteria in suspension following extraction using the MIL and CS is the initial concentration of bacteria in the sample.\nBecause culture-based methods depend on sample preparation steps that preserve bacterial viability, potential deleterious cytotoxic effects imparted by MIL extractants must be considered. To begin our further study of MIL-bacterial interactions, we selected S. typhimurium ATCC 14028 as a model gram-negative pathogen and the Ni(II) MIL as extractant."}, "[2]": {"tested_on": "Y. enterocolitica ATCC 2371", "test": "MIL-based whole-cell extraction", "set-up": "species or system Yersinia enterocolitica", "settings": "EF determined using Tryptic Soy Agar", "procedure": "as §1, §2"}, "[3]": {"tested_on": "Y. enterocolitica ATCC 9160", "test": "MIL-based whole-cell extraction", "set-up": "species or system Yersinia enterocolitica", "settings": "EF determined using Tryptic Soy Agar", "procedure": "as §1, §2"}, "Salmonella serovars": {"tested_on": "Salmonella serovars", "assay_type": "cell-based", "procedure": "as §3, §4"}, "P. eucalypti 299R": {"tested_on": "P. eucalypti 299R", "test": "MIL-based whole-cell extraction", "set-up": "species or system Pantoea eucalypti", "settings": "EF determined using Columbia Agar", "procedure": "as §1, §2"}, "[4]": {"settings": "Table 3, 1×10^5 CFU mL^−1 in TSB, 15 μL MIL"}, "[5]": {"settings": "Table 4, 1×10^6 CFU mL^−1 in TSB, 15 μL MIL"}, "[6]": {"settings": "average over exposure times 0-15 min (n=4)"}, "[7]": {"settings": "exposure time 0 min, 1×10^5 CFU mL^−1 in TSB, 15 μL MIL"}}, "note": "Where two headings read alike, the source gives them in different places.", "data": [{"smiles": "CCCCCCCCCCCCCC[P+](CCCCCC)(CCCCCC)CCCCCC.O=C([CH-]C(=O)C(F)(F)F)C(F)(F)F.O=C([CH-]C(=O)C(F)(F)F)C(F)(F)F.O=C([CH-]C(=O)C(F)(F)F)C(F)(F)F.[Ni+2]", "note": "[Ni(II) MIL, [P66614^+][Ni(hfacac)3^−]]", "values": [{"measurement": "density", "setting": "Density of MIL", "value": "~1.3", "unit": "g/mL"}, {"measurement": "Enrichment Factor", "setting": "K. aerogenes ATCC 29940", "value": 71}, {"measurement": "Enrichment Factor", "setting": "C. sakazakii 01088P", "value": 12}, {"measurement": "MIL-conferred injury: recovery on TSA vs VRBGA", "setting": "E. coli O157:H7", "value": "no injury could be detected"}, {"measurement": "Relative Affinity for MIL", "setting": "[1]", "value": "++++"}, {"measurement": "enrichment factors", "setting": "[1]; Example 2, 2×T, 1×NaCl back-extraction medium", "value": "approximately 12"}, {"measurement": "Enrichment Factor (BSA)", "setting": "[1]; [4]", "value": 14}, {"measurement": "Enrichment Factor (TSA)", "setting": "[1]; [4]", "value": 10}, {"measurement": "Enrichment Factor (BSA)", "setting": "[1]; [5]", "value": 6}, {"measurement": "Enrichment Factor (TSA)", "setting": "[1]; [5]", "value": 8}, {"measurement": "average EF value (BSA)", "setting": "[1]; [6]", "value": "8.2±1.0"}, {"measurement": "average EF value (TSA)", "setting": "[1]; [6]", "value": "7.2±0.6"}, {"measurement": "Percent-Loss", "setting": "[1]; cells lost to wash solution", "value": "53 ± 3", "unit": "%"}, {"measurement": "Enrichment Factor (BSA)", "setting": "[1]; [7]", "value": 7}, {"measurement": "Enrichment Factor (TSA)", "setting": "[1]; [7]", "value": 8}, {"measurement": "Enrichment Factor (BSA)", "setting": "[1]; exposure time 5 min", "value": 8}, {"measurement": "Enrichment Factor (TSA)", "setting": "[1]; exposure time 5 min", "value": 7}, {"measurement": "Enrichment Factor (BSA)", "setting": "[1]; exposure time 10 min", "value": 8}, {"measurement": "Enrichment Factor (TSA)", "setting": "[1]; exposure time 10 min", "value": 6}, {"measurement": "Enrichment Factor (BSA)", "setting": "[1]; exposure time 15 min", "value": 9}, {"measurement": "Enrichment Factor (TSA)", "setting": "[1]; exposure time 15 min", "value": 8}, {"measurement": "Enrichment Factor", "setting": "[2]", "value": 5}, {"measurement": "Enrichment Factor", "setting": "[3]", "value": 5}, {"measurement": "MIL-conferred injury: recovery on TSA or BSA", "setting": "Salmonella serovars; no statistically significant differences (p-value=0.7248)", "value": "no detectable injury"}, {"measurement": "recovery on VRBGA compared with TSA", "setting": "Salmonella serovars; p-value=0.0004", "value": "significantly lower"}, {"measurement": "Enrichment Factor", "setting": "P. eucalypti 299R", "value": 169}]}]}
